Measurements from ChEMBL document CHEMBL1201862, “PubChem BioAssay data set” (2004).
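Dose response: 5 concentrations. Exposure: 48 h. Format: 96-well plates. Endpoint: linear interpolation; highest concentration if not reached. At the GI50, growth is halved.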 The source made the active and inactive calls. Rule as the data show it: active = GI50 up to about 1.1 µM and inactive = higher.

How the values were obtained:
Assay in all cases: NCI tumour cell line growth inhibition, 48 h
786-0 = system: 786-0
KM12 = system: KM12
HOP-62 = system: HOP-62
SF-268 = system: SF-268
M14 = system: M14
SK-OV-3 = system: SK-OV-3
A498 = system: A498
COLO 205 = system: COLO 205
NCI-H226 = system: NCI-H226
HOP-92 = system: HOP-92
UACC-62 = system: UACC-62
LOX IMVI = system: LOX IMVI
T47D = system: T47D
HCT-15 = system: HCT-15
NCI-H23 = system: NCI-H23
ACHN = system: ACHN
NCI-H522 = system: NCI-H522
Malme-3M = system: Malme-3M
A549 = system: A549

Structure (SMILES) | GI50 (786-0) | GI50 (KM12) | GI50 (HOP-62) | GI50 (SF-268) | GI50 (M14) | GI50 (SK-OV-3) | GI50 (A498) | GI50 (COLO 205) | GI50 (NCI-H226) | GI50 (HOP-92) | GI50 (UACC-62) | GI50 (LOX IMVI) | GI50 (T47D) | GI50 (HCT-15) | GI50 (NCI-H23) | GI50 (ACHN) | GI50 (NCI-H522) | GI50 (Malme-3M) | GI50 (A549)
COC(=O)[C@@H]1C=C[C@@H](C#N)n2c(=O)n(-c3ccccc3)c(=O)n21 | 25.2 µM (inactive) | 28.8 µM (inactive) | 13.3 µM (inactive) | 27.9 µM (inactive) | 25.9 µM (inactive) | 47.5 µM (inactive) | 41.1 µM (inactive) | 40.3 µM (inactive) | 15.6 µM (inactive) | 45.4 µM (inactive) | 36.6 µM (inactive) | 10.6 µM (inactive) | 24.2 µM (inactive) | 30.1 µM | 36.9 µM (inactive) | 38.5 µM (inactive) | 14.8 µM (inactive) |  | 
CC(=O)OCC1OC(O/C=C(\CN=[N+]=[N-])C(C)=O)C(OC(C)=O)C(OC(C)=O)C1OC(C)=O (configuration not stated) | 5.38 µM (inactive) | 18.7 µM (inactive) | 25.6 µM (inactive) | 21.6 µM (inactive) | 8 µM (inactive) | 45 µM (inactive) | 20.3 µM (inactive) | 1.74 µM (inactive) |  | 6.15 µM (inactive) | 11.6 µM (inactive) | 3.47 µM (inactive) | 3.67 µM (inactive) | 3.94 µM | 9.44 µM (inactive) | 3.4 µM (inactive) | 1.79 µM (inactive) | 3.05 µM (inactive) | 20.7 µM (inactive)
O=C(O)c1cc(/N=N/c2ccc([As](=O)(O)O)cc2)ccc1O | > 100 µM (inactive) | > 100 µM (inactive) | > 100 µM (inactive) | > 100 µM (inactive) | > 100 µM (inactive) | > 100 µM (inactive) | > 100 µM (inactive) | > 100 µM (inactive) | > 100 µM (inactive) |  | > 100 µM (inactive) | > 100 µM (inactive) | > 100 µM (inactive) | > 100 µM | > 100 µM (inactive) | > 100 µM (inactive) | > 100 µM (inactive) | > 100 µM (inactive) | > 100 µM (inactive)
CC(C)=CC[C@]12CCN[C@H]1N(S(=O)(=O)c1ccccc1)c1ccccc12 | 15.6 µM (inactive) | 22 µM (inactive) | 15.3 µM (inactive) | 14.8 µM (inactive) |  | 12.7 µM (inactive) |  | 15.1 µM (inactive) | 14.9 µM (inactive) | 12.2 µM (inactive) | 13.2 µM (inactive) | 15.9 µM (inactive) | 15.2 µM (inactive) | 15.6 µM | > 100 µM (inactive) | 21.1 µM (inactive) | 13.9 µM (inactive) | 16.3 µM (inactive) | 19.9 µM (inactive)
N=C(N)NS(=O)(=O)c1ccc(Nc2c3ccccc3nc3c(C(=O)NC(CO)(CO)CO)cccc23)cc1 | 15.7 µM (inactive) | 14.9 µM (inactive) | 13.6 µM (inactive) | 19.5 µM (inactive) | 30.6 µM (inactive) | 22 µM (inactive) | 19.3 µM (inactive) | 12.6 µM (inactive) |  | 14.4 µM (inactive) | 19.5 µM (inactive) | 18.7 µM (inactive) | 4.7 µM (inactive) | 93.8 µM | 36.5 µM (inactive) | 11.1 µM (inactive) | 11.7 µM (inactive) | 19.4 µM (inactive) | 9.66 µM (inactive)
CC1=C(C#N)C2C(=C(N)Oc3ccccc32)C(N)=N1 (configuration not stated) | 20.4 µM (inactive) | 26.4 µM (inactive) | 35.6 µM (inactive) | 24.5 µM (inactive) | 20.7 µM (inactive) | 8.38 µM (inactive) | 24 µM (inactive) | 26.1 µM (inactive) | 12.2 µM (inactive) |  | 20.7 µM (inactive) | 20.1 µM (inactive) | 20.1 µM (inactive) | 17.9 µM | > 10 µM (inactive) | 27.7 µM (inactive) | 15.4 µM (inactive) | 16 µM (inactive) | 38.3 µM (inactive)
Cn1c(=S)[nH]c(N)c(Cc2ccccc2)c1=O | > 100 µM (inactive) | 66.1 µM (inactive) | > 100 µM (inactive) | > 100 µM (inactive) | > 100 µM (inactive) | > 100 µM (inactive) | 32.1 µM (inactive) | > 100 µM (inactive) | 44.3 µM (inactive) | 25.6 µM (inactive) | 40.2 µM (inactive) | > 100 µM (inactive) | 40.3 µM (inactive) | 42.9 µM | > 100 µM (inactive) | > 100 µM (inactive) |  | 78 µM (inactive) | > 100 µM (inactive)
COC(=O)[C@@]12OC[C@]34[C@H]([C@@H](O)[C@@H]1O)[C@@]1(C)CC(=O)C(O)=C(C)[C@@H]1C[C@H]3OC(=O)[C@H](OC(=O)/C=C(\C)C(C)C)[C@@H]24 [BRUCEANTIN] | 0.0292 µM (active) | 0.02 µM (active) | 0.02 µM (active) | 0.0205 µM (active) | 0.00346 µM (active) | 0.02 µM (active) | 0.02 µM (active) | 0.0242 µM (active) | 0.02 µM (active) | 0.0328 µM (active) | 0.02 µM (active) | 0.02 µM (active) | 0.0153 µM (active) | 0.0214 µM | 0.02 µM (active) | 0.0026 µM (active) |  | 0.02 µM (active) | 0.02 µM (active)
